Measured values reported in publication PMC5664438, “The novel isoxazoline ectoparasiticide lotilaner (Credelio™): a non-competitive antagonist specific to invertebrates γ-aminobutyric acid-gated chloride channels (GABACls)” (Parasites & Vectors, 2017).
Entries after “also recorded” stand apart in the source; their conditions may differ. Where two headings read alike, the source gives them in different places.

Tests used:
[1] = biological target: T1, DmS-GABA (wild type GABACl, RDLac) (Drosophila melanogaster, UniProt P25123); experiment: Antagonist cumulative pre-application concentration-inhibition, TEVC on oocytes expressing DmS-GABA; type: cell-based; conditions: for nH (Hill coefficient): concentration-inhibition curve
T1 construct: expressed in transfected cells; host or cells: Xenopus laevis oocytes injected with in vitro-transcribed capped cRNA (gene synthesised at Genewiz, pT7-TS vector)
T1 sequence (P25123 45-606 isoform P25123-1 limits assumed): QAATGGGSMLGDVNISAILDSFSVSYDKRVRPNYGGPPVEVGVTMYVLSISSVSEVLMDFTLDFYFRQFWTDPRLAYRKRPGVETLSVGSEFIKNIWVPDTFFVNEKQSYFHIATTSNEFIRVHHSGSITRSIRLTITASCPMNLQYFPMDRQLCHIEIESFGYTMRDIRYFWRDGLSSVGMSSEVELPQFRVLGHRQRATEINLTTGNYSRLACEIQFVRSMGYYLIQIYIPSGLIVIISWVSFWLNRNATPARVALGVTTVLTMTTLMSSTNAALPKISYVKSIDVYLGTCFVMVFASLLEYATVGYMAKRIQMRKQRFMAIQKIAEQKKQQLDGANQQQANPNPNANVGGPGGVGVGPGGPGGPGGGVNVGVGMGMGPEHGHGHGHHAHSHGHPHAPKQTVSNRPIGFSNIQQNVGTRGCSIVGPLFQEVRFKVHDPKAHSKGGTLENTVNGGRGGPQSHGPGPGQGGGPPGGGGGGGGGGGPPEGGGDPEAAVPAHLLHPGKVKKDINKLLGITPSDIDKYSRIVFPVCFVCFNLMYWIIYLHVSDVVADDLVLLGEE
From the text: (§1) The agonist and the drug were then washed off for 15 s and the oocyte exposed again to the same drug concentration for 15 s before increasing to the next concentration.
In a first step, we investigated the effect of lotilaner on the very well characterized D. melanogaster GABACl.

[2] = Biological activity of the enantiomers in vivo (data not shown)
DmS-GABA receptor [3] = biological target: T2, DmS-GABA receptor (Drosophila melanogaster, UniProt P25123); experiment: Co-application protocol (GABA plus drug, no pre-incubation), TEVC on oocytes expressing DmS-GABA; conditions: GABA 1 μM + 100 nM drug
T2 sequence (P25123 45-606 isoform P25123-1 limits assumed): T1 sequence (P25123 45-606 isoform P25123-1 limits assumed)

Ls-GABA1 [4] = biological target: T3, Ls-GABA1 (Lepeophtheirus salmonis, UniProt A0A2H4NNJ4); experiment: Antagonist cumulative pre-application concentration-inhibition, TEVC on oocytes expressing Ls-GABA1; type: cell-based; conditions: for nH (Hill coefficient): concentration-inhibition curve
T3 sequence (A0A2H4NNJ4 entry or part of it): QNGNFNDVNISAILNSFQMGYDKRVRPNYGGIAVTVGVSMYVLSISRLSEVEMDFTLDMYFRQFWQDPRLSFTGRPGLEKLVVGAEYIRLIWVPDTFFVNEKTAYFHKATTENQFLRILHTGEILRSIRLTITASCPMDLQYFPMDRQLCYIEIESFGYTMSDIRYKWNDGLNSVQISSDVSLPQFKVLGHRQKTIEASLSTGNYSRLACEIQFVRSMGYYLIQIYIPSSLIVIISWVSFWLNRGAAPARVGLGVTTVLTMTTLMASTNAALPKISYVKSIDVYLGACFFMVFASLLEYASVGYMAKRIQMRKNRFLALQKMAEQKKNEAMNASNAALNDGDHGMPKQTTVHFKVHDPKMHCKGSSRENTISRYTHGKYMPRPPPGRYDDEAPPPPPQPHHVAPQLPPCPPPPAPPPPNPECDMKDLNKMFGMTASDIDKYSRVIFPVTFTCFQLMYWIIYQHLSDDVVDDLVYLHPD

Rm-GABA [5] = biological target: T4, Rm-GABA (Rhipicephalus microplus, UniProt C8CGT5); experiment: Antagonist cumulative pre-application concentration-inhibition, TEVC on oocytes expressing Rm-GABA; type: cell-based; conditions: for nH (Hill coefficient): Rm-GABA, concentration-inhibition curve
T4 sequence (C8CGT5 entry or part of it): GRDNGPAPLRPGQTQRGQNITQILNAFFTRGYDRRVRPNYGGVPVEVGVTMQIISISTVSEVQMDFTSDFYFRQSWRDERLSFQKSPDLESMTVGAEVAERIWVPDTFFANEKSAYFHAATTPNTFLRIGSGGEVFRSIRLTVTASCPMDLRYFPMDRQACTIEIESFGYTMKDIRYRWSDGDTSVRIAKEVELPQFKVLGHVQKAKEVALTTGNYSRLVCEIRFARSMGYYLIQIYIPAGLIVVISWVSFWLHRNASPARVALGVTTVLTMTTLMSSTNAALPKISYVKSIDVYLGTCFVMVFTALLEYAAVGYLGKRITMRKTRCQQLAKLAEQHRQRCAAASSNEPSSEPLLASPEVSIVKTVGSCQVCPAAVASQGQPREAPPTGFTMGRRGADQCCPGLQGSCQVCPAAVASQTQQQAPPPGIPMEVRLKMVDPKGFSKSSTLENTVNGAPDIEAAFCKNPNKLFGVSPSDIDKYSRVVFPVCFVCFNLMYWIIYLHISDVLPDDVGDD

[6] = test system: D. melanogaster S302 form; set-up: method as in PMID 24365472; conditions: cited from earlier work
Cl-GABAA α1β2γ2 [7] = biological target: T5, Cl-GABAA α1β2γ2 (Canis lupus familiaris, UniProt A0A2H4NNI8+A0A2H4NNJ3+E2RSQ0); experiment: Antagonist cumulative pre-application concentration-inhibition, TEVC on oocytes expressing Cl-GABAA α1β2γ2; type: cell-based
T5 sequence (E2RSQ0 entry or part of it): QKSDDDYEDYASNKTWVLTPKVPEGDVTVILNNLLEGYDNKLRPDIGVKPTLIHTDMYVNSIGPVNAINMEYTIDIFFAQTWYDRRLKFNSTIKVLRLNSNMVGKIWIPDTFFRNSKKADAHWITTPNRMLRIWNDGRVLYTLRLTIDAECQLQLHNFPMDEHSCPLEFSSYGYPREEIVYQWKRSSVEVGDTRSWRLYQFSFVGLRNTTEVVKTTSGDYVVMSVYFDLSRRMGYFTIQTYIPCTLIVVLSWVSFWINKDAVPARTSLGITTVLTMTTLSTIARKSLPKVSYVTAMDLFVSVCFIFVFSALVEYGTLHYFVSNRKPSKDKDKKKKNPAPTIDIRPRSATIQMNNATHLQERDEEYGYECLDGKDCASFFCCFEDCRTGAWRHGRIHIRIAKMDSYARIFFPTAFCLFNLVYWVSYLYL
T5 sequence (A0A2H4NNJ3 entry or part of it): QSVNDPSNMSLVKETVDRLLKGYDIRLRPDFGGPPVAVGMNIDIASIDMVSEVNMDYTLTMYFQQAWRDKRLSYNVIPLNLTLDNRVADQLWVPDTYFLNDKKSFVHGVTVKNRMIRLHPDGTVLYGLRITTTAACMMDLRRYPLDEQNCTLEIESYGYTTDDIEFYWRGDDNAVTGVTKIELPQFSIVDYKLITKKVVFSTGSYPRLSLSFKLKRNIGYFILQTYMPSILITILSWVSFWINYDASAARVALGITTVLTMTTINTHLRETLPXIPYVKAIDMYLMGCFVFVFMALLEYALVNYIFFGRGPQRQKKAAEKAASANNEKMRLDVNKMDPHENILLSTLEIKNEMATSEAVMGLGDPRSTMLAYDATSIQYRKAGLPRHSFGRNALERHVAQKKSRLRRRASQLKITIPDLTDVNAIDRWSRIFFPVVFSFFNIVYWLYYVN
T5 sequence (A0A2H4NNI8 entry or part of it): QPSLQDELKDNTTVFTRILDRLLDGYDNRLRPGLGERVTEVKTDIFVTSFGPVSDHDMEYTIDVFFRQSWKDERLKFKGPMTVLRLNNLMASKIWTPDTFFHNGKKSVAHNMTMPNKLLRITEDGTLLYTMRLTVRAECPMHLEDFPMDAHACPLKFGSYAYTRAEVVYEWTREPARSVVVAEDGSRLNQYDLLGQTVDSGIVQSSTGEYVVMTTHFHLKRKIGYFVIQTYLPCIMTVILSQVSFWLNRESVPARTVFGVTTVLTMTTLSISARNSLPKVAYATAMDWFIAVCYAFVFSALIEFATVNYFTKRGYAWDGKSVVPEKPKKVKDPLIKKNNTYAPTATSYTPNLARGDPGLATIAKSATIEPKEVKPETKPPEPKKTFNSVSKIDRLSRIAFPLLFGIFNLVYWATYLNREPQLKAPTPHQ

DmS-GABA receptor [8] = biological target: T2, DmS-GABA receptor; experiment: GABA concentration-response relationships for DmS-GABA in absence and presence of lotilaner; type: cell-based; set-up: expressed in transfected cells; host or cells: Xenopus laevis oocytes injected with in vitro-transcribed capped cRNA (gene synthesised at Genewiz, pT7-TS vector); conditions: normalized to initial 100 μM GABA application
From the text: Statistical comparisons were done using unpaired Student’s t test.

[9] = biological target: T1, DmS-GABA (wild type GABACl, RDLac); experiment: GABA concentration-activation, two-electrode voltage clamp on Xenopus oocytes expressing DmS-GABA; type: cell-based; conditions: GABA concentration-activation curve
Procedure: Capped cRNAs were synthesized (T7 mMessage mMachine kit, Ambion, Austin, TX, USA) from the linearized vectors containing the different subunits according to the manufacturer’s protocol. cRNA samples were stored at -80 °C until use. Oocytes were prepared and injected using standard procedures. Briefly, ovaries were harvested from Xenopus females that were deeply anesthetized by cooling down at 4 °C and with exposure to tricaine mesylate (3-aminobenzoic acid ethyl ester, methane sulfonate salt, 150 mg/l). […] Small pieces of ovary were isolated in a sterile Barth solution containing: NaCl (88 mM), KCl (1 mM), NaHCO3 (2.4 mM), HEPES (10 mM, pH 7.5), MgSO4·7H2O (0.82 mM), Ca(NO3)2·4H2O (0.33 mM), CaCl2·6H2O (0.41 mM), at pH 7.4, and supplemented with 20 μg/ml of kanamycin, 100 U/ml penicillin and 100 μg/ml streptomycin. Oocytes were microinjected using a Roboinject automatic injection system (Multi Channel Systems, Reutlingen, Germany) with 15–25 nl of cRNA solution (5–50 ng/μl) and then incubated at 18 °C in sterile filtered Barth solution. Recordings were made 1–6 days post-cRNA injection.
as §1
(1) and normalized to the fitted maximal current amplitude.

Ls-GABA1 [10] = biological target: T3, Ls-GABA1; experiment: cell-based
Procedure: (§2) Capped cRNAs were synthesized (T7 mMessage mMachine kit, Ambion, Austin, TX, USA) from the linearized vectors containing the different subunits according to the manufacturer’s protocol. cRNA samples were stored at -80 °C until use. Oocytes were prepared and injected using standard procedures. Briefly, ovaries were harvested from Xenopus females that were deeply anesthetized by cooling down at 4 °C and with exposure to tricaine mesylate (3-aminobenzoic acid ethyl ester, methane sulfonate salt, 150 mg/l). The animal care of Xenopus laevis (accreditation de l’animalerie HiQScreen N° 171) and sacrifice was done according to the guidance set by the veterinary authorities of the canton of Geneva based on art.18 on the animal welfare legislation (LPA, art. 141 Ordonnance sur la protection des animaux, OPAn) with the authorization N° 27479 GE/15/16). Small pieces of ovary were isolated in a sterile Barth solution containing: NaCl (88 mM), KCl (1 mM), NaHCO3 (2.4 mM), HEPES (10 mM, pH 7.5), MgSO4·7H2O (0.82 mM), Ca(NO3)2·4H2O (0.33 mM), CaCl2·6H2O (0.41 mM), at pH 7.4, and supplemented with 20 μg/ml of kanamycin, 100 U/ml penicillin and 100 μg/ml streptomycin. Oocytes were microinjected using a Roboinject automatic injection system (Multi Channel Systems, Reutlingen, Germany) with 15–25 nl of cRNA solution (5–50 ng/μl) and then incubated at 18 °C in sterile filtered Barth solution. Recordings were made 1–6 days post-cRNA injection.
(§3) . In experiments in which the channel was challenged several times by GABA, enough time was allowed between applications for the channel to recover from desensitization. […]; 10 μM for DmS-GABA and DmR2-GABA; 50 μM for Rm-GABA; and 500 μM for Ls-GABA1). The agonist and the drug were then washed off for 15 s and the oocyte exposed again to the same drug concentration for 15 s before increasing to the next concentration.
(§4) . (1) and normalized to the fitted maximal current amplitude. […] . Table 1 and Additional file 3: Figure S1f). The Hill coefficients were higher than 1 for the five receptors (Table 1) indicating the presence of more than one agonist binding site per receptor. These values were obtained from peak current amplitudes. […]; Table 1 and Additional file 3: Figure S1f).

Rm-GABA [11] = biological target: T4, Rm-GABA; experiment: cell-based
Procedure: as §2, §3, §4

Cl-GABAA α1β2γ2 [12] = biological target: T5, Cl-GABAA α1β2γ2; experiment: GABA concentration-activation, two-electrode voltage clamp on Xenopus oocytes expressing Cl-GABAA α1β2γ2; type: cell-based
Procedure: as §2, with “Recordings were made 1–6 days post-cRNA injection.” left out

M. domestica GABACls = test system: M. domestica GABACls; set-up: method as in PMID 19944072; conditions: cited from earlier work
R. microplus GABACls = test system: R. microplus GABACls; set-up: method as in PMID 24365472; conditions: cited from earlier work

Cc1cc(C2=NO[C@](c3cc(Cl)c(Cl)c(Cl)c3)(C(F)(F)F)C2)sc1C(=O)NCC(=O)NCC(F)(F)F [AHC-2229544]
nH (Hill coefficient) ([1]; DmS-GABA): -0.30 ± 0.03
inhibition of the GABA-induced current ([1]; DmS-GABA, up to 0.3 μM): no inhibition
IC50 ([1]; read-out: IC50): 959 ± 268 nM
less biological activity than the S-enantiomer [2]: 100 ×
slight decrease in both peaks and tails currents (DmS-GABA receptor [3]): < 10%

N#Cc1nn(-c2c(Cl)cc(C(F)(F)F)cc2Cl)c(N)c1[S+]([O-])C(F)(F)F (stereo not drawn) [Fipronil, fipronil, reference compound]
IC50 [1]: 27.6 ± 1.71 nM
nH (Hill coefficient) ([1]; DmS-GABA): -0.85 ± 0.04
IC50 (Ls-GABA1 [4]): 165 ± 11.8 nM
nH (Hill coefficient) (Ls-GABA1 [4]; Ls-GABA1): -0.78 ± 0.04
IC50 (Rm-GABA [5]): 25.6 ± 2.25 nM
nH (Hill coefficient) (Rm-GABA [5]): -0.56 ± 0.03
loss of potency [6]: 18 fold

Cc1cc(C2=NO[C@@](c3cc(Cl)c(Cl)c(Cl)c3)(C(F)(F)F)C2)sc1C(=O)NCC(=O)NCC(F)(F)F [Lotilaner, lotilaner]
GABA current inhibition ([1]; DmS-GABA, GABA 10 μM, lotilaner concentrations > 1 μM): almost complete GABA current inhibition
nH (Hill coefficient) ([1]; DmS-GABA): -0.64 ± 0.03
IC50 ([1]; read-out: IC50): 23.8 ± 1.87 nM
IC50 (Ls-GABA1 [4]): 52.4 ± 4.54 nM
fold lower IC50 value compared to fipronil (Ls-GABA1 [4]; Ls-GABA1): 3 fold
nH (Hill coefficient) (Ls-GABA1 [4]; Ls-GABA1): -0.75 ± 0.04
IC50 (Rm-GABA [5]): 36.8 ± 4.39 nM
nH (Hill coefficient) (Rm-GABA [5]): -0.47 ± 0.03
IC50 (Cl-GABAA α1β2γ2 [7]): > 10000 nM
nH (Hill coefficient) (Cl-GABAA α1β2γ2 [7]; Cl-GABAA α1β2γ2, concentration-inhibition curve): -0.09 ± 0.02
inhibitory effect / activity on dog GABAA receptor (Cl-GABAA α1β2γ2 [7]; Cl-GABAA α1β2γ2, up to the highest dose tested, 10 μM): no activity; also recorded: No obvious inhibitory effect
potentiation of peak current at first co-application (DmS-GABA receptor [3]; on average): > 30%
potentiation of tail current at first co-application (DmS-GABA receptor [3]; on average): > 10%
GABA Rmax in presence of 0.1 μM lotilaner (DmS-GABA receptor [8]; lotilaner 0.1 μM): 50.98 ± 0.47%
GABA Rmax in presence of 1 μM lotilaner (DmS-GABA receptor [8]; lotilaner 1 μM): 13.65 ± 1.12%

NCCCC(=O)O [GABA, γ-aminobutyric acid]
nH (Hill coefficient) [9]: 1.57 ± 0.15
EC50 (Ls-GABA1 [10]): 393000 ± 11100 nM
nH (Hill coefficient) (Ls-GABA1 [10]; Ls-GABA1, GABA concentration-activation curve): 1.35 ± 0.04
EC50 (Rm-GABA [11]): 50000 ± 760 nM
nH (Hill coefficient) (Rm-GABA [11]; Rm-GABA, GABA concentration-activation curve): 2.27 ± 0.19
EC50 (Cl-GABAA α1β2γ2 [12]; EC50 (μM), natural agonist GABA, ± SEM): 1.8 ± 0.14 µM
nH (Hill coefficient) (Cl-GABAA α1β2γ2 [12]; GABA concentration-activation curve): 1.31 ± 0.12
GABA Rmax (DmS-GABA receptor [8]; GABA alone): 97.706 ± 2.45%

Cc1cc(C2=NOC(c3cc(Cl)cc(Cl)c3)(C(F)(F)F)C2)ccc1C(=O)NCC(=O)NCC(F)(F)F (stereo not drawn) [fluralaner]
higher inhibitor potency over fipronil (M. domestica GABACls): 5 fold
higher inhibitor potency over fipronil (R. microplus GABACls): 5 fold

ClC1=C(Cl)[C@]2(Cl)[C@@H]3[C@@H]4C[C@@H]([C@H]5O[C@@H]45)[C@@H]3[C@@]1(Cl)C2(Cl)Cl [Dieldrin, dieldrin, reference compound]
IC50 [1]: 4170 ± 920 nM
nH (Hill coefficient) ([1]; DmS-GABA): -0.45 ± 0.05
